In patent publication US9399631B2, “Polyphenol proteasome inhibitors, synthesis, and methods of use” (UNIVERSITY OF SOUTH FLORIDA, priority 2003, dated 2016):
Read-outs that look alike come from different tables or passages of the source.

What was measured:
[1] = biological target: purified 20S proteasome (UniProt Q9P992); test: Inhibition of chymotrypsin-like activity of purified 20S proteasome (source not stated); type: biochemical; design: IC50; other: purified 20S proteasome, multiple concentrations; conditions: purified 20S proteasome, multiple concentrations
Experimental: Inhibition of purified 20S proteasome activity by natural or synthetic GTPs. Purified prokaryotic (0.5 μg) or eukaryotic (0.02 μg) 20S proteasome was incubated with 20 μM fluorogenic peptide substrate, Suc-Leu-Leu-Val-Tyr-AMC for 30 min at 37° C. in […] of assay buffer (50 mM Tris-HCl, pH 7.5), with or without a natural or synthetic tea polyphenol. After incubation, production of hydrolyzed 7-amido-4-methyl-coumarin (AMC) groups was measured using a multi-well plate VERSAFLUOR Fluorometer with an excitation filter of 380 nm and an emission filter of 460 nm (BIO-RAD), and a multi-well plate reader Wallac 1420 VICTORTM^2 with an excitation filter of 355 nm and an emission filter of 460 nm (EG&G WALLAC).

[2] = test system: purified 20S proteasome; conditions: natural (−)-EGCG; cited from earlier work
[3] = test system: LNCaP cells; test: Cell-free caspase-3 activity assay, LNCaP cells; type: cell-based, human; conditions: 10 μM, normalized to 0 hours
Experimental: To examine whether (+)-EGCG could induce apoptosis only in LNCaP, but not DU-145, cells, both cell lines were treated with 10 μM (+)-EGCG for 0, 24, 48 or 72 hours, followed by performance of cell-free caspase-3 activity assay. Cells were harvested at each sequential time-point and activity was determined by incubating whole cell extracts with caspase-3 substrate and measuring free AMCs (FIG. 20C). All the time-points were normalized to 0 hours. (+)-EGCG activated caspase-3 in LNCaP cells in a time-dependent manner: by 2.5-, 3.5- and 6-fold at 24, 48 and 72 hours, respectively (FIG. 20C). In contrast, little caspase-3 activity was detected in (+)-EGCG-treated in DU145 cells: only ˜2-fold induction at 72 hours (FIG. 20C). In the same experiment, (−)-EGCG at 10 μM was used as a control. […] Therefore, the abilities of (+)-EGCG to activate apoptotic program in these prostate cancer cell lines are correlated well to their abilities to accumulate Bax protein levels to a critical high threshold (compare FIGS. 20C and 20D vs. 20B). Values are means of triplicate independent experiments and error bars denote standard deviations.

[4] = test system: WI-38 cells; test: Western blot of p27 in normal WI-38 fibroblasts; type: cell-based, human; conditions: 25 μM, 36 hours
Experimental: Cell Culture, Cell Extract Preparation, and Western Blot Assay. Human leukemia Jurkat T and prostate cancer LNCaP cells were cultured in RPMI 1640 medium supplemented with 10% fetal calf serum, 100 units/ml of penicillin, and 100 μg/ml streptomycin. Human immortalized, non-transformed NK cells (YT cell line) (38) were cultured in RPMI 1640 supplemented with 1 mM MEM sodium pyruvate solution, 0.1 mM MEM non-essential amino acids solution, 10% fetal calf serum. 100 units/ml penicillin, and 100 μg/ml streptomycin. Normal (WI-38) and simian virus 40 (SV40)-transformed (VA-13) human fibroblasts were grown in Dulbecco's modified Eagle's medium supplemented with 10% fetal calf serum, 100 units/ml of penicillin and 100 μg/ml of streptomycin. All cells were maintained at 37° C. in a humidified incubator with an atmosphere of 5% CO2. A whole cell extract was prepared in accordance with An et al. (An, B. et al. Cell Death Differ, 1998, 5:1062-75). Briefly, cells were harvested, washed with PBS twice, and homogenized in a lysis buffer [50 mM Tris-HCl (pH 8.0), 5 mM EDTA, 150 mM NaCl, 0.5% NP-40, 0.5 mM phenylmethylsulfonyl fluoride, and 0.5 mM dithiothreitol] for 30 min at 4° C. […] The ratio of p27 or IκB-α to the corresponding actin was determined by scanning intensities of the protein bands. […]

Sequence of purified 20S proteasome (UniProt Q9P992) (Q9P992 whole entry): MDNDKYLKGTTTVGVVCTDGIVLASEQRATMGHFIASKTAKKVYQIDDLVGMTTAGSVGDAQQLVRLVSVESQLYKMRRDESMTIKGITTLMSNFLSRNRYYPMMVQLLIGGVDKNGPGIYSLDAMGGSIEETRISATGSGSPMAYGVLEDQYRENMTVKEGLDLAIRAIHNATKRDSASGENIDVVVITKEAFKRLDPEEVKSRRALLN

O=C(OC1Cc2c(O)cc(O)cc2OC1c1cc(O)c(O)c(O)c1)c1cc(O)c(O)c(O)c1 (single isomer, unassigned; (+)) [(+)-GCG]
IC50 [1]: 410 nM

O=C(O[C@@H]1Cc2c(O)cc(O)cc2O[C@@H]1c1cc(O)c(O)c(O)c1)c1cc(O)c(O)c(O)c1 [(−)-EGCG, (−)-epigallocatechin-3-gallate, reference compound]
IC50 [2]: 100 to 200 nM

O=C(OC1Cc2c(O)cc(O)cc2OC1c1cc(O)c(O)c(O)c1)c1cc(O)c(O)c(O)c1 (single isomer, unassigned; (+)) [(+)-EGCG]
caspase-3 activation ([3]; 24 hours): 2.5 fold
caspase-3 activation ([3]; 48 hours): 3.5 fold
caspase-3 activation ([3]; 72 hours): 6 fold
IC50 ([1]; read-out: IC50): 210 nM

O=C(N[C@@H]1Cc2c(O)cc(O)cc2O[C@@H]1c1cc(O)c(O)c(O)c1)c1cc(O)c(O)c(O)c1 [(−)-EGCG-amide, (−)-[2R,3R]-N-[5,7-Dihydroxy-2-(3,4,5-trihydroxyphenyl)-chroman-3-yl]-3,4,5-trihydroxybenzamide]
p27 levels [4]: slightly increased
